# Assay results: patent publication US20040048791A1, “Method for treating neoplastic cells using cycloprodigiosin or salt thereof” (priority 2002, published 2004)
# How the values were obtained:
# [1] = test system: NF-κB; experiment: NF-κB luciferase gene reporter assay (pIG3Luc) in HeLa cells; format: cell-based; details: HeLa cells, FIG. 2A, 2C
# From the text: The plasmids, pRKF-IKKα and pRKHA-IKKβ have been described previously (Oka, S., Kamata, H., Kamata, K., Yagisawa, H. and Hirata, H. (2000) FEBS Lett., 472, 196-202). pRKF-IKKαEE and pRK-HA-IKKβEE encode constitutively active mutants of IKKα, in which 176 and 180 serine residues in an activation loop are replaced by glutamic acid residues, and IKKβ, in, which 177 and 181 serine residues are replaced by glutamic acid residues, respectively. A reporter plasmid pIG3Luc for NF-κB encodes triple NF-κB binding site sequences (AGCTTCAGAGGGGACTRANSCRIPTIONCCGAGAGG) (SEQ ID NO: 2) followed by the luciferase gene. A control plasmid, pBKRLuc, was obtained from Toyobo (Toyo B-Net Co., Japan). pcDNAF-MEKK1, pRKF-p65, pEFBOSHA-Rac1-DA, and pEFBOSHA-Cdc42-DA, are the expression plasmids for MEKK1, the NF-κB subunit p65, constitutively active Rac1 and Cdc42, respectively.
# Luciferase gene reporter assay and Kinase assays of IKK: HeLa cells were transfected with the reporter plasmids described above using Lipofectin (GIBCO BRL). After 24-48 hr, the luciferase activity was determined using the Luciferase Assay System (Promega). The kinase activity of IKKα and IKKβ were analyzed by immune complex kinase assay as described previously (Oka, S., Kamata, H., Kamata, K., Yagisawa, H. and Hirata, H. (2000) FEBS Lett. 472, 196-202). The substrates was using GST-IκBα(1-55) or GST-p65(399-551).
# The gene expression induction by NF-κB activation plays the most important role among “life” signals by TNFα. Therefore, the NF-κB reporter gene was introduced into the cells to analyze the effect of cPrG-HCl by luciferase assay.
# NF-κB is translocated into the nucleus also by activation with low-molecular-weight G proteins Rac1 and Cdc42 or MEKK1 and induces gene expression. An activated Rac1, Cdc42 or MEKK1 expression plasmid was introduced together with the NF-κB reporter gene into cells and the effect of cPrG-HCl on NF-κB activation was measured by luciferase assay (FIG. 4A and FIG. 4B).
# [2] = test system: HeLa cells; experiment: DNA fragmentation (apoptosis) in HeLa cells; format: cell-based; details: stimulation by TNFα alone, FIG. 1A
# Protocol: (§1) Cell culture: HeLa cells were cultured in Dulbecco's modified Eagle's medium supplemented with 10% fetal bovine serum and 50 μg/ml kanamycin at 37° C. in 5% CO2 in air.
# (§2) Assay for apoptotic processes: Cell viability was determined by dye exclusion assay using 0.1% trypan blue. DNA fragmentation was analyzed as described previously (Kawauchi, K. et al. (1997) Biochem. Biophys. Res. Commun. 237, 543-547). In the caspase-3 assay, cells were disrupted by freeze-thaw in an extraction buffer (50 mM Tris-HCl, pH7.4, 1 mM EGTA, 5 mM EDTA, 5 mM MgCl2, 1 mM APMSF, 10 μg/ml pepstatin, 10 μg/ml leupeptin, and 1 mM DTT). Then the suspension was centrifuged at 15,000 rpm for 20 min, and the supernatants obtained were incubated at 37° C. for 60 min in a reaction buffer (50 mM Tris-HCl, pH7.4, 1 mM EDTA, 10 mM EGTA) with 20 μM of the fluorogenic substrate DEVD-AFC (Peptide Institute, Inc., Japan). Cleavage of the substrates was quantified by measuring the fluorescence of 7-amino-4-trifluomethyl coumarin released using a spectrofluorometer (Shimadzu RF5000) with excitation at 380 mn and emission at 460 nm.
# HeLa cells were treated with TNFα and cPrG.HCl and the effect of cPrG.HCl on apoptosis was examined by measuring DNA fragmentation and survivability.
# [3] = test system: HeLa cells; experiment: Cell viability by trypan blue dye exclusion assay; format: cell-based; details: stimulation by TNFα alone, FIG. 1A
# Protocol: as §1, §2
# [4] = test system: female ICR mice; experiment: Toxicity on intraperitoneal administration to mice; format: in vivo; details: 5 weeks old, 25 to 29 g
# [5] = as compared to FCCP
# [6] = Oka et al. (2000) FEBS Lett.; cited from earlier work
molecule,measurement,setting,value
"CO/C1=C\C(C)=C\[C@@H](C)[C@@H](O)[C@@H](C)C/C(C)=C/C=C/[C@H](OC)[C@@H]([C@@H](C)[C@@H](O)[C@H](C)[C@@]2(O)C[C@@H](O)[C@H](C)[C@@H](C(C)C)O2)OC1=O [bafilomycin, reference compound]","TNFα-induced NF-κB activation (gene expression induction, luciferase)",[1],not suppressed
TNFα,DNA fragmentation,[2],hardly observed
same,decrease in cell viability,[3],hardly observed
"COC1=CC(c2ccc[nH]2)=N/C1=C\c1[nH]c(C)c2c1C(C)CCC2 (stereo not drawn) [cPrG, Cycloprodigiosin]",LD50,[4],greater than 10 mg
same,ionophore activity,[5],no ionophore activity
CC(=O)N[C@@H](CS)C(=O)O [N-acetylcysteine],effect on apoptosis,[6],inhibits
